Data on two compounds can be found in paper PMC7534374 (Journal of Enzyme Inhibition and Medicinal Chemistry, 2020).

Test [1] concerns the target T1, yeast glutathione reductase (yGR) (Saccharomyces cerevisiae, UniProt P41921).
T1 sequence (P41921 1-483): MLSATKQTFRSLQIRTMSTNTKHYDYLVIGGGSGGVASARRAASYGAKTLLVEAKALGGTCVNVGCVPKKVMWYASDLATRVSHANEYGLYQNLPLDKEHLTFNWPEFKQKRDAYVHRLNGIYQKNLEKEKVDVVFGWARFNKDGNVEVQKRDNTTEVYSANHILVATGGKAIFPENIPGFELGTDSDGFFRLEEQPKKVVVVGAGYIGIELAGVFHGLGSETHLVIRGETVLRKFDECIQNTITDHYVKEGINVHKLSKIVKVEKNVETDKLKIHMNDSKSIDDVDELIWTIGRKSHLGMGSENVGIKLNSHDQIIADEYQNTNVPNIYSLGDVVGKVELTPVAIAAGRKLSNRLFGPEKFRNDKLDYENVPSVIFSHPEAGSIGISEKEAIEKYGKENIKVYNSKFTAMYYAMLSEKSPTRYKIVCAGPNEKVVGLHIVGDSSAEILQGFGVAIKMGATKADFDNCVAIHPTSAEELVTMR
As to the kind of experiment: LC-MS/MS of covalent adduct. It is filed as biochemical. The following applies: read-out: Ki.

Test [2] addresses T2, human glutathione reductase (hGR) (Homo sapiens, UniProt P00390).
T2 sequence (P00390 44-522): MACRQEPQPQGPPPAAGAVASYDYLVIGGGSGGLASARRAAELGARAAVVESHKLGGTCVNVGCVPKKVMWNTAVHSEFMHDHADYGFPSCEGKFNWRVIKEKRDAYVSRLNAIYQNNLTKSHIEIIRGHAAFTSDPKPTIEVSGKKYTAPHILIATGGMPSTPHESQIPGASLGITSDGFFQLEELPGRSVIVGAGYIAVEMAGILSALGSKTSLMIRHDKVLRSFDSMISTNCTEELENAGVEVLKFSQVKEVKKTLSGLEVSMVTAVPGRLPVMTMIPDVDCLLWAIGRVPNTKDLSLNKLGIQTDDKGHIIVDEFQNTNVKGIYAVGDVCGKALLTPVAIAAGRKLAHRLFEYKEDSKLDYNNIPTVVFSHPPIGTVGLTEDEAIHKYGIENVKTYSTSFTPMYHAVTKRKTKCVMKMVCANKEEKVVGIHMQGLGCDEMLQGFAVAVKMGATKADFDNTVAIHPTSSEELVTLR
As to the kind of experiment: GR activity assay. It counts as biochemical.

`S=C=NCc1ccccc1` [BITC, Benzyl isothiocyanate]: the KI (inactivation) in test [1] is 260 µM. Besides, in test [2], the “GR activity assay (NADPH consumption at 340 nm)” value is “BITC exerted comparable inhibitory effect against both of yeast and human GRs”. `S=C=NCCc1ccccc1` [PEITC, Phenethyl isothiocyanate]: the “GR activity assay (NADPH consumption at 340 nm)” value in test [2] was “both of BITC and PEITC inhibited yeast or human GR in a concentration-dependent manner”.
